PubChem BioAssay AID602210 (Sanford-Burnham Center for Chemical Genomics, 2012)
Calls of active or inactive are those of the source. How the calls were made is not given here.

assay: modulators of 2-deoxyglucose-induced H9c2 death, dose response, myocardial damage modulator project, cell-based, ATPlite luminescence, rat, set 2 (AID 602210); conditions: H9c2 rat cardiomyoblasts, 2-deoxyglucose-induced death, 2 h

SMILES | IC50
CCOC(=O)C1=C(C)Nc2ccccc2N=C1NC(=O)c1oc2ccccc2c1COC | 6.98 µM
Brc1ccc(-c2nn3c(-c4ccccn4)nnc3s2)o1 | 42.3 µM (inactive)
COc1cc2c(C#CCCCO)c(-c3ccsc3)oc(=O)c2cc1OC | 5.66 µM
CCOC(=O)C1CCCN(C(=O)CCC(=O)Nc2ccc3nc(N4CCOCC4)cc(C)c3c2)C1 (stereo not given) | 38.8 µM (inactive)
O=C(c1ccccc1)c1ccc2nc(N3CCN(C(=O)c4ccco4)CC3)c3nncn3c2c1 | 21.9 µM (inactive)
COc1ccc(C(=O)Nc2cccc(NC(=O)c3ccc(OC)c(OC)c3)n2)cc1OC | 5.47 µM
CCC(=O)Oc1cccc(C(=O)Nc2ccc(-c3nnc(-c4ccco4)o3)cc2)c1 | > 79 µM (inactive)
C[C@H](CO)N1C[C@H](C)[C@@H](CN(C)S(=O)(=O)c2ccc(F)cc2)Oc2ccc(NC(=O)Nc3ccc4c(c3)OCO4)cc2C1=O | 48.8 µM (inactive)
Cc1ncc(CO)c2cc(C(=O)Nc3ccccc3Cl)c(=Nc3cccc(C(N)=O)c3)oc12 | 2.43 µM
O=C(/C=C\c1cn(-c2ccccc2)nc1-c1ccc2c(c1)OCCO2)N1CCOCC1 | > 79 µM (inactive)
Clc1ccccc1-c1nc(N/N=C/c2cccnc2)c2ccccc2n1 | 18.6 µM (inactive)
COc1cccc(NC(=O)c2oc3ccc(S(=O)(=O)N4CCOCC4)cc3c2C)c1 | 19.5 µM (inactive)
Nc1c(C(=O)N/N=C/c2cccnc2)oc2nc(-c3ccccc3)cc(-c3ccco3)c12 | 3.52 µM
O=c1c2ccccc2nc2c3ccccc3c(NCCO)nn12 | 70.6 µM (inactive)
CCOc1cc(-c2cc(-c3ccc(N)cc3)nc(N)c2C#N)ccc1O | 11.8 µM (inactive)
CC(=O)c1ccc(-c2cnc3c(NC=O)cc(-c4ccc(C(=O)NC5CC5)cc4)cn23)cc1 | 6.57 µM
COc1ccc(C(=O)O/N=C(/c2ccccc2)c2ccncc2)cc1OC | 15.9 µM (inactive)
COC(=O)c1ccc(C(NC(=O)OCc2ccccc2)/C(C)=C/[C@@H](C)C(=O)NCc2ccc(OC)c(OC)c2)cc1 (stereo not given in full) | 23.8 µM (inactive)
COc1ccc2[nH]c(=O)c(CN(Cc3cccnc3)S(=O)(=O)c3ccccc3F)cc2c1 | 2.74 µM
CS(=O)(=O)c1ccc(-c2cnc3c(NC=O)cc(-c4ccsc4)cn23)cc1 | 23 µM (inactive)
CCCCCCn1c(C)nc2c(c1=O)c1nc3ccccc3nc1n2/N=C/c1ccco1 | 11.2 µM (inactive)
Cc1ccccc1N(C(=O)c1snc(C(N)=O)c1N)C(C(=O)NCc1ccccc1)c1ccc(O)cc1 (stereo not given) | 18 µM (inactive)
CC(=O)Nc1cccc(-c2cc(NC(C)=O)c3ncc(-c4cccc(C(C)=O)c4)n3c2)c1 | 13.1 µM (inactive)

SMILES | IC50
COc1ccc(-c2cc3nc(-c4ccccc4)cc(N4CCN(C(=O)c5ccoc5)CC4)n3n2)cc1 | 7.21 µM
O=C(COc1cccc(NC(=O)c2cccc([N+](=O)[O-])c2)c1)c1ccc(F)cc1 | 11.2 µM (inactive)
COc1ccccc1CN(C(=O)CNC(=O)c1ccco1)C(C(=O)NCC1CCCO1)c1ccccc1 (stereo not given) | 9.47 µM
CCOC(=O)C1=C(C)N=c2s/c(=C\c3ccncc3)c(=O)n2C1c1ccc2c(c1)OCO2 (stereo not given) | 30.3 µM (inactive)
Cc1cc(N)n(-c2nc(-c3cccnc3)nc3ccccc23)n1 | 26.1 µM (inactive)
COc1cccc(/C=N/Nc2nc3ccccc3n3cnnc23)c1 | 3.49 µM
COc1cc(-c2cnc3c(NC=O)cc(-c4cccnc4)cn23)cc(OC)c1OC | 36.2 µM (inactive)
COc1ccc(/C=N/NC(=O)c2ccc(COc3cccc4cccnc34)cc2)cc1OC | 12.1 µM (inactive)
COc1ccc(CCCNC(=O)C2(C)Cc3c(-c4ccc(NC(C)=O)cc4)ccnc3O2)cc1 (stereo not given) | 12.5 µM (inactive)
C[C@@H]1CN([C@H](C)CO)S(=O)(=O)c2ccc(C#Cc3ccccc3F)cc2O[C@H]1CN(C)C(=O)c1ccc2c(c1)OCO2 | 8.38 µM
CCCNC(=O)c1ccc(N2CCC3(CC2)CC(c2ccccc2)=NO3)c(NC(=O)c2ccco2)c1 | 8.75 µM
COC(=O)c1ccc(C(C(=O)NCc2ccccc2)N(Cc2cccs2)C(=O)c2cnccn2)cc1 (stereo not given) | 13.4 µM (inactive)
COc1ccc(/C=N/NC(=O)c2cc(-c3ccc4c(c3)OCO4)n[nH]2)cc1OC | 9.02 µM
C/C(=N\Nc1nnc2c3ccccc3n(C)c2n1)c1ccc(C)o1 | 12.3 µM (inactive)
Cc1c(O)ccc2c(-c3ccccc3)cc(=O)oc12 | 31.7 µM (inactive)
COc1cc(/C=C(\C#N)c2nc3ccc(C)cc3[nH]2)c([N+](=O)[O-])cc1OC | 26.4 µM (inactive)
Cc1ccc(-c2nn3c(-c4ccco4)nnc3c3ccccc23)cc1S(=O)(=O)NCC1CCCO1 (stereo not given) | 27.1 µM (inactive)
O=C(NCC(=O)N(Cc1cccs1)C(C(=O)NC1CCCCC1)c1ccco1)c1cccs1 (stereo not given) | 17 µM (inactive)
COc1ccc(C(=O)Nc2cc(C)nn2-c2nc3ccccc3[nH]2)c(OC)c1 | 16.1 µM (inactive)
COc1cc(C(=O)Nc2ccc(NC(=O)c3cccc(Cl)c3)nc2)cc(OC)c1OC | > 79 µM (inactive)
COc1ccc2o/c(=N/NC(=O)c3cccs3)c(C(N)=O)cc2c1 | 21.5 µM (inactive)
O=C(CCCN1C(=O)c2cccc3cccc(c23)C1=O)N1CCN(c2ccccc2O)CC1 | 19.5 µM (inactive)
